Experimental data from patent US20220072149A1, “BIOLOGICALLY ACTIVE CLUSTER OF MOLECULES” (priority 2018, published 2022).

Columns and labels:
HER14 cells = assay: viability assay with HER14 cells (MTT); type: cell-based; details: 0.1 nM dianthin-EGF, 72 h
Protocol: To test the efficacy of the invention, we conducted a viability assay with HER14 cells. These cells are fibroblasts stably transfected with the human epidermal growth factor receptor and therefore target cells for the targeted toxin dianthin-EGF. HER14 cells (2,000 cells/100 μL/well) were seeded into wells of 96-well-cell culture plates and incubated for 24 h in DMEM medium supplemented with 10% fetal calf serum and 1% penicillin/streptomycin at 37° C., 5% CO2 and 98% humidity. The different test substances (see results and FIG. 21) were then added in triplicates in a volume of 25 μL and supplemented with further 25 μL of medium. After an incubation of 72 h, 30 μL 3-(4,5-dimethylthiazol-2-yl)-2,5-diphenyltetrazolium bromide (0.5 mg/mL in water) was added per well and incubated for 2 h. Thereafter, the medium was carefully removed and replaced by an aqueous solution containing 10% (v/v) isopropanol, 5% (w/v) sodium dodecyl sulfate and 400 mM HCl, and incubated for 5 min. Solubilized formazan was photometrically quantitated at […] in a microplate reader (Spectra MAX 340 PC, Molecular Devices, Sunnyvale, Calif., USA). Untreated cells were normalized to 1 and all samples referred to the untreated control. Significance was determined by unpaired two-sample t-tests.

HeLa cells = assay: HeLa cell viability assay (MTS): inhibition of SO1861-mediated endosomal escape by polymeric structures; type: cell-based, human; details: […] dianthin-EGF + SO1861 curve, PAMAM 500 nM, chloroquine 500 nM, dendron 667 nM, 72 hr
Protocol: HeLa cells were seeded in DMEM (PAN-Biotech GmbH) supplemented with 10% fetal bovine serum (PAN-Biotech GmbH) and 1% penicillin/streptomycin (PAN-Biotech GmbH), in a 96 well plate at 5,000 c/w in 100 μL/well and incubated overnight at 37° C. and 5% CO2. The next day 20× concentrated stocks of the PAMAM, PAMAM-conjugates, G4-dendron (prepared in Example 3) or chloroquine (Sigma Aldrich) samples were prepared in DMEM. The media was removed from the cell culture plate and replaced by […] culture media, followed by the addition of 10 μL sample/well (from the 20× concentrated stocks) and a 45 min incubation at 37° C. […] Followed by 15 sec sonication and a brief re-heating at 50° C. for 1 min, while shaking at 1,250 rpm. Subsequently a serial dilution of SO1861 was prepared in PBS.
As control for the inhibition of endosomal acidification chloroquine was used.

| SMILES | effect on the toxicity of dianthin-EGF (HER14 cells) | inhibition of SO1861-mediated endosomal escape of the targeted toxin and subsequent cell killing (HeLa cells) |
| --- | --- | --- |
| C[C@@H]1O[C@@H](O[C@H]2[C@H](OC(=O)[C@]34CCC(C)(C)C[C@H]3C3=CC[C@@H]5[C@@]6(C)CC[C@H](O[C@H]7O[C@H](C(=O)O)[C@@H](O)[C@H](O[C@@H]8OC[C@@H](O)[C@H](O)[C@H]8O)[C@H]7O[C@@H]7O[C@H](CO)[C@H](O)[C@H](O)[C@H]7O)[C@@](C)(C=O)[C@@H]6CC[C@@]5(C)[C@]3(C)CC4)O[C@H](C)[C@H](O[C@@H]3O[C@H](C)[C@@H](O)[C@H](O)[C@H]3O)[C@@H]2O)[C@H](O)[C@H](O)[C@H]1O[C@@H]1OC[C@@H](O)[C@H](O[C@@H]2OC[C@@H](O)[C@H](O)[C@H]2O)[C@H]1O [SA1641] | death of al cells |  |
| CCN(CC)CCCC(C)Nc1ccnc2cc(Cl)ccc12 (centres unmarked) [chloroquine] |  | inhibit |
